Test results published in patent publication US9050330B2, “Method, composition and kit for treating frequent headaches” (priority 2012, dated 2015).

Columns and labels:
[1] = tested on: sphenopalatine ganglion; conditions: cited from earlier work; for duration of anesthesia provided to the nerve structure: long-acting local anesthetics in SPGB
[2] = tested on: tension headaches and migraines; assay: Earlier treatment of Patient 1 (tension headaches and migraines); format: in vivo, human; conditions: Patient 1, before the composition
Text: This patient was a person who experienced tension headaches and migraines. The pain was acute producing nauseas and vomits.

SMILES	duration of anesthesia provided to the nerve structure [1]	outcome of earlier treatment [2]	other results
CCCCN1CCCCC1C(=O)Nc1c(C)cccc1C (centres unmarked) [bupivacaine]	at least about an hour	–	–
CCN(CC)CC(=O)Nc1c(C)cccc1C [lidocaine]	–	–	period for which head pain is decreased (equal to the duration of the analgesia) ([1]; shorter-acting local anesthetic in SPGB): less than an hour
Cc1ccccc1C(OCCN(C)C)c1ccccc1 (centres unmarked) [norflex]	–	without success	–
COc1ccc2cc(CCC(C)=O)ccc2c1 [relafen]	–	without success	–
CCCN1CCCC[C@H]1C(=O)Nc1c(C)cccc1C [ropivacaine]	at least about an hour	–	–
